Reference: paper PMC7059547, “Synthesis and herbicidal activities of aryloxyacetic acid derivatives as HPPD inhibitors” (Beilstein Journal of Organic Chemistry, 2020)
Where two headings read alike, the source gives them in different places.

How the values were obtained:
[1] = system: E. crus-galli, S. faberii, D. sanguinalis, A. retroflexus, E. prostrata, A. juncea; assay: Post-emergence greenhouse herbicidal activity; assay type: in vivo; parameters: Sum of inhibition rate: scale not given here; details: post-emergence, 150 g ai/ha; for Sum of inhibition rate: sum over six weeds (AJ, AR, EP, DS, EC, SF), 18 days after treatment
wheat = assay: Postemergence crop safety, wheat; assay type: in vivo; details: postemergence, 150 g ai/ha, four-leaf stage, after 15 days
Description: (§1) The representative crops, rice, wheat, maize, cotton, soybean, and canola were selected to test the crop safety of compound II3, II4, and II5. The six crops were separately planted in ﬂowerpots (12 cm diameter) containing the composite nutrient soil and grown at room temperature. When the crops had reached the four-leaf stage, the safety experiments were conducted at the rate of 150 g ai/ha. After 15 days, the ﬁnal results of crop safety were evaluated with two duplicates per experiment (Table 3).

maize = assay: Postemergence crop safety, maize; assay type: in vivo; details: postemergence, 150 g ai/ha, four-leaf stage, after 15 days
Description: as §1

cotton = assay: Postemergence crop safety, cotton; assay type: in vivo; details: 150 g ai/ha, four-leaf stage, after 15 days
Description: as §1

soybean = assay: Postemergence crop safety, soybean; assay type: in vivo; details: 150 g ai/ha, four-leaf stage, after 15 days
Description: as §1

[2] = molecular target: T1, Arabidopsis thaliana HPPD (AtHPPD) (Arabidopsis thaliana, UniProt P93836); assay: AtHPPD enzyme inhibition study; assay type: biochemical
T1 construct: made in house
T1 sequence (P93836 1-445): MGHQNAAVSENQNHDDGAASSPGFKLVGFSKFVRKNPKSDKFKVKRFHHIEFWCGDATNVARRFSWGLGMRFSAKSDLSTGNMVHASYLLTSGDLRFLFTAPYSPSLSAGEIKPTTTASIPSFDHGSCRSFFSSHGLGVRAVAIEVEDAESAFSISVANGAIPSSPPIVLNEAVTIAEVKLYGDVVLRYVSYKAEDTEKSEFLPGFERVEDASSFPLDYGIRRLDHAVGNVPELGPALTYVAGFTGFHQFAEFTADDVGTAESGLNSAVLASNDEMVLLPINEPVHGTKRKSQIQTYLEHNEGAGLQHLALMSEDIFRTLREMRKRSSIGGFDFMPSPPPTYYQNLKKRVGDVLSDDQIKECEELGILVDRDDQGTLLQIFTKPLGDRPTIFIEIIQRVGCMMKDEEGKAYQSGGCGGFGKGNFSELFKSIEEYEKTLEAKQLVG
Description: AtHPPD was prepared and puriﬁed according to the reported methods in the literature [19–2035–37].

canola = assay: Postemergence crop safety, canola; assay type: in vivo; details: 150 g ai/ha, four-leaf stage, after 15 days
Description: as §1

rice = assay: Postemergence crop safety, rice; assay type: in vivo; details: 150 g ai/ha, four-leaf stage, after 15 days
Description: as §1

| Structure (SMILES) | herbicidal activity (in words) [1] | Sum of inhibition rate [1] | % injury wheat (wheat) | % injury maize (maize) | % injury cotton (cotton) | % injury soybean (soybean) | Ki [2] | % injury canola (canola) | % injury rice (rice) | Ki ([2]; read-out: AtHPPD inhibition Ki) |
| --- | --- | --- | --- | --- | --- | --- | --- | --- | --- | --- |
| Cn1nc(C(F)(F)F)c(C(=O)COc2nc(Cl)c(Cl)cc2Cl)c1O [II5] | excellent herbicidal activities | 415 | 50% | 30% | 90% | 70% | 120 ± 3 nM | 100% | 50% | – |
| CS(=O)(=O)c1ccc(C(=O)C2C(=O)CCCC2=O)c([N+](=O)[O-])c1 [mesotrione, reference compound] | – | 510 | 40% | 10% | 80% | 50% | – | 100% | 50% | 13 ± 1 nM |
